# Source: ChEMBL document CHEMBL1138106, “The discovery of a potent and selective lethal factor inhibitor for adjunct therapy of anthrax infection” (Bioorg Med Chem Lett, 2006)
# Key:
# Lethal factor [1] = target: T1, Lethal factor (Bacillus anthracis, UniProt P15917)
# T1 sequence (P15917 whole entry): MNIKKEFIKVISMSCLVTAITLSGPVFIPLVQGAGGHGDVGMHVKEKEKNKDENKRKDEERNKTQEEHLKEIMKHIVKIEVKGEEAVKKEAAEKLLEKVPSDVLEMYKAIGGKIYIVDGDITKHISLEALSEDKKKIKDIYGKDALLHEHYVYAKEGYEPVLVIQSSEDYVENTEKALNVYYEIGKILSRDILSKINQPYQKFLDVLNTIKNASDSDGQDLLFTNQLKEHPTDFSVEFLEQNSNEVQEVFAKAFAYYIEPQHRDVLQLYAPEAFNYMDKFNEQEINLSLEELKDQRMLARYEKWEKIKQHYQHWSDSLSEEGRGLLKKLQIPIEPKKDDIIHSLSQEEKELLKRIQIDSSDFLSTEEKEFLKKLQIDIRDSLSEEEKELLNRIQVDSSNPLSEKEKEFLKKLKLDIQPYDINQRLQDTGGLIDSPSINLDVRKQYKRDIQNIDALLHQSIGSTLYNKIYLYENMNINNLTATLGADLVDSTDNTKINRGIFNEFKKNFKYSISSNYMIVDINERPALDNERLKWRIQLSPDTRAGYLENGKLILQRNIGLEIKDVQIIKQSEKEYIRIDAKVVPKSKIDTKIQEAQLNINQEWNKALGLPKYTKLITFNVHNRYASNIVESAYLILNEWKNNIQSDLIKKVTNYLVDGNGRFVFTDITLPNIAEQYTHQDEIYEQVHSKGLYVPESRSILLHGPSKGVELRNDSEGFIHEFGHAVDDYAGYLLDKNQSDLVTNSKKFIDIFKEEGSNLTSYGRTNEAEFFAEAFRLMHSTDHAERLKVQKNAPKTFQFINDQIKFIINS
# Lethal factor [2] = target: T1, Lethal factor; remark: listed apart in the source
# Lethal factor [3] = target: T1, Lethal factor; experiment: Inhibition of LF
smiles,measurement,setting,value
CC(C)[C@@H](NS(=O)(=O)c1ccc(F)c(CO)c1)C(=O)NO,IC50,Lethal factor [1],3740 nM
same,IC50,Lethal factor [2],600 nM
Cc1cc(S(=O)(=O)N[C@@H](C(=O)NO)C2CCCCC2)ccc1F,IC50,Lethal factor [1],190 nM
same,IC50,Lethal factor [2],42 nM
COc1ccc(S(=O)(=O)N(Cc2ccncc2)[C@@H](C(=O)NO)C(C)C)cc1,IC50,Lethal factor [1],9500 nM
same,IC50,Lethal factor [2],3100 nM
CC(C)[C@@H](NS(=O)(=O)c1ccc(-c2cnns2)s1)C(=O)NO,IC50,Lethal factor [1],10200 nM
same,IC50,Lethal factor [2],810 nM
Cc1cc(S(=O)(=O)N[C@H](CCCN=C(N)N)C(=O)NO)ccc1F,IC50,Lethal factor [1],1700 nM
same,IC50,Lethal factor [2],40 nM
CC(C)[C@@H](NS(=O)(=O)CCc1ccccc1)C(=O)NO,IC50,Lethal factor [1],> 20000 nM
same,IC50,Lethal factor [2],11900 nM
CC(C)[C@@H](NS(=O)(=O)CC(F)(F)F)C(=O)NO,IC50,Lethal factor [1],> 40000 nM
same,IC50,Lethal factor [2],> 40000 nM
COc1ccc(S(=O)(=O)N[C@@H](C(=O)NO)C(C)C)cc1,IC50,Lethal factor [1],7300 nM
same,IC50,Lethal factor [2],900 nM
Cc1cc(S(=O)(=O)N[C@@H](C(=O)NO)C(C)C)ccc1F,IC50,Lethal factor [1],120 nM
CC[C@@H](NS(=O)(=O)c1ccc(F)c(C)c1)C(=O)NO,IC50,Lethal factor [1],490 nM
same,IC50,Lethal factor [2],100 nM
CCCCOc1ccc(S(=O)(=O)N[C@@H](C(=O)NO)C(C)C)cc1,IC50,Lethal factor [1],> 20000 nM
same,IC50,Lethal factor [2],> 40000 nM
Cc1cc(S(=O)(=O)N[C@@H](C(=O)NO)[C@H]2CCOC2)ccc1F,IC50,Lethal factor [1],450 nM
same,IC50,Lethal factor [2],120 nM
CC(C)[C@@H](NS(=O)(=O)c1ccc(F)cc1CO)C(=O)NO,IC50,Lethal factor [1],> 20000 nM
same,IC50,Lethal factor [2],1310 nM
Cc1cc(S(=O)(=O)N[C@H](CCNC(=O)CN)C(=O)NO)ccc1F,IC50,Lethal factor [1],7400 nM
same,IC50,Lethal factor [2],37 nM
Cc1cc(S(=O)(=O)N[C@@H](C(=O)NO)C2CCC2)ccc1F,IC50,Lethal factor [1],670 nM
same,IC50,Lethal factor [2],130 nM
Cc1cc(S(=O)(=O)N[C@@H](C(=O)NO)c2ccccc2)ccc1F,IC50,Lethal factor [1],370 nM
same,IC50,Lethal factor [2],50 nM
Cc1cc(S(=O)(=O)N[C@H](CCOCCN)C(=O)NO)ccc1F,IC50,Lethal factor [1],3500 nM
same,IC50,Lethal factor [2],48 nM
CC[C@@H](C)[C@@H](NS(=O)(=O)c1ccc(F)c(C)c1)C(=O)NO,IC50,Lethal factor [1],130 nM
same,IC50,Lethal factor [2],67 nM
CC(C)[C@@H](NS(=O)(=O)c1ccc(Cl)s1)C(=O)NO,IC50,Lethal factor [1],6450 nM
same,IC50,Lethal factor [2],1310 nM
Cc1cc(S(=O)(=O)N[C@@H](C(=O)NO)C2CCCC2)ccc1F,IC50,Lethal factor [1],170 nM
same,IC50,Lethal factor [2],64 nM
CC(C)[C@@H](NS(=O)(=O)c1ccc(-c2ccccc2)cc1)C(=O)NO,IC50,Lethal factor [1],> 20000 nM
same,IC50,Lethal factor [2],> 40000 nM
Cc1ccc(S(=O)(=O)N[C@@H](C(=O)NO)C(C)C)cc1F,IC50,Lethal factor [1],> 20000 nM
same,IC50,Lethal factor [2],5180 nM
CC(C)[C@@H](NS(=O)(=O)c1cccc(F)c1)C(=O)NO,IC50,Lethal factor [1],12400 nM
same,IC50,Lethal factor [2],2800 nM
Cc1cc(S(=O)(=O)N[C@@H](C(=O)NO)C2CC2)ccc1F,IC50,Lethal factor [1],730 nM
same,IC50,Lethal factor [2],120 nM
Cc1cc(S(=O)(=O)N[C@H](CCNC(=O)C(C)(C)N)C(=O)NO)ccc1F,IC50,Lethal factor [1],8700 nM
same,IC50,Lethal factor [2],57 nM
Cc1cc(S(=O)(=O)N[C@@H](C(=O)NO)[C@@H](C)C2CC2)ccc1F,IC50,Lethal factor [1],460 nM
same,IC50,Lethal factor [2],65 nM
Cc1cc(S(=O)(=O)N[C@@H](C(=O)NO)C(C)(C)C)ccc1F,IC50,Lethal factor [1],2300 nM
same,IC50,Lethal factor [2],300 nM
Cc1cc(S(=O)(=O)NC(CCc2c[nH]cn2)C(=O)NO)ccc1F (racemic),IC50,Lethal factor [1],2800 nM
same,IC50,Lethal factor [2],75 nM
CC(C)[C@@H](NS(=O)(=O)c1ccccc1)C(=O)NO,IC50,Lethal factor [1],7800 nM
same,IC50,Lethal factor [2],1100 nM
COc1ccc(S(=O)(=O)N(CCc2ccsc2)[C@@H](C(=O)NO)C(C)C)cc1,IC50,Lethal factor [2],2100 nM
CC(=O)N(Cc1cccnc1)[C@@H](C(=O)NO)C(C)C,IC50,Lethal factor [1],> 20000 nM
same,IC50,Lethal factor [2],> 40000 nM
COc1ccc(S(=O)(=O)N(C)[C@@H](C(=O)NO)C(C)C)cc1,IC50,Lethal factor [1],17000 nM
COc1ccc(S(=O)(=O)N[C@@H]2CCN(O)C2=O)cc1,IC50,Lethal factor [1],> 40000 nM
same,IC50,Lethal factor [2],> 40000 nM
CCCC[C@@H](NS(=O)(=O)c1ccc(F)c(C)c1)C(=O)NO,IC50,Lethal factor [1],410 nM
same,IC50,Lethal factor [2],70 nM
Cc1cc(S(=O)(=O)N[C@H](CCNC(=O)[C@H](C)N)C(=O)NO)ccc1F,IC50,Lethal factor [1],7470 nM
same,IC50,Lethal factor [2],59 nM
COc1ccc(S(=O)(=O)N(Cc2cccnc2)[C@@H](C(=O)NO)C(C)C)cc1.Cl [CGS-27023A],IC50,Lethal factor [1],12000 nM
same,IC50,Lethal factor [2],1200 nM
same,IC50,Lethal factor [3],Active
CC(C)[C@@H](NS(=O)(=O)c1ccc(Oc2ccccc2)cc1)C(=O)NO,IC50,Lethal factor [1],> 20000 nM
same,IC50,Lethal factor [2],> 40000 nM
Cc1ccc(S(=O)(=O)N[C@@H](C(=O)NO)C(C)C)cc1,IC50,Lethal factor [1],15000 nM
same,IC50,Lethal factor [2],3000 nM
CC[C@H](C)[C@@H](NS(=O)(=O)c1ccc(F)c(C)c1)C(=O)NO,IC50,Lethal factor [1],230 nM
same,IC50,Lethal factor [2],67 nM
CC(C)[C@@H](NS(=O)(=O)Cc1cccc(Cl)c1)C(=O)NO,IC50,Lethal factor [1],> 20000 nM
same,IC50,Lethal factor [2],16600 nM
COc1ccc(S(=O)(=O)N(CCn2ccnc2)[C@@H](C(=O)NO)C(C)C)cc1,IC50,Lethal factor [2],19100 nM
CC(C)[C@@H](NS(=O)(=O)c1ccc(C(F)(F)F)cc1)C(=O)NO,IC50,Lethal factor [1],> 20000 nM
same,IC50,Lethal factor [2],> 40000 nM
CC(C)[C@@H](NS(=O)(=O)c1ccc(F)c2ccccc12)C(=O)NO,IC50,Lethal factor [1],2760 nM
same,IC50,Lethal factor [2],460 nM
Cc1cc(S(=O)(=O)N[C@@H](C(=O)NO)C(C)C)ccc1OCc1ccccc1,IC50,Lethal factor [1],> 20000 nM
same,IC50,Lethal factor [2],> 40000 nM
Cc1cccc(S(=O)(=O)N[C@@H](C(=O)NO)C(C)C)c1,IC50,Lethal factor [1],1290 nM
same,IC50,Lethal factor [2],400 nM
CC(C)[C@@H](NS(=O)(=O)c1ccccc1F)C(=O)NO,IC50,Lethal factor [1],> 20000 nM
same,IC50,Lethal factor [2],6600 nM
Cc1cc(S(=O)(=O)N[C@H](CC2CC2)C(=O)NO)ccc1F,IC50,Lethal factor [1],130 nM
same,IC50,Lethal factor [2],51 nM
CC(C)[C@@H](NS(=O)(=O)c1ccc(F)cc1)C(=O)NO,IC50,Lethal factor [1],3000 nM
same,IC50,Lethal factor [2],290 nM
Cc1cc(S(=O)(=O)N[C@@H](C(=O)NO)C(C)C)ccc1O,IC50,Lethal factor [1],> 20000 nM
same,IC50,Lethal factor [2],1640 nM
Cc1cc(S(=O)(=O)N[C@H](C)C(=O)NO)ccc1F,IC50,Lethal factor [1],2100 nM
same,IC50,Lethal factor [2],130 nM
